# According to US7582681B2, “Synergistic mixtures of 1,2-alkane diols” (Symrise GmbH & Co. KG, priority 2002, dated 2009):
# What was measured:
# Type in all cases: cell-based
# [1] = test system: Candida albicans ATCC 10231; assay: Test for adequate preservation (European Pharmacopea), 1,2-diols and 1,2-diol mixtures in O/W emulsion; conditions: 3% diol(s) in O/W emulsion
# Description: (§1) A test for adequate preservation was carried out in accordance with the European Pharmacopea. The test thus consists of the contamination of the formulation, if possible in its final ratio, with a prescribed inoculum of suitable microorganisms, storage of the inoculated formulation at a specific temperature, taking of samples from the vessel at specific intervals and determination of the number of microorganisms in the samples taken in this way. The preserving properties are adequate if, under the conditions of the test, there is a distinct reduction or optionally no increase in the germ count in the inoculated formulations after the prescribed times at the prescribed temperatures. Experimental details of the test procedure are described in the European Pharmacopea (ISBN 3-7692-2768-9; 2001 supplement to the 3rd Edition, page 421-422, chapter 5.1.3). The initial germ count (CFU/g; “0” value) was in the range of 240,000 to 300,000 in the various test series. For the tests for adequate preservation, (a) potentially synergistically active mixtures taken into account and (b), for comparison purposes, the corresponding unmixed 1,2-diols were incorporated in O/W emulsions. […] The variation in the total concentration of 1,2-diols or 1,2-diol mixtures in the O/W emulsions was compensated for by increasing or reducing the water content, so that otherwise identical formulations always comprised 100 parts by weight in total.
# [2] = test system: Escherichia coli ATCC 8739; assay: as above; conditions: 3% diol(s) in O/W emulsion
# Description: as §1
# [3] = test system: Pseudomonas aeruginosa ATCC 9027; assay: as above; conditions: 3% diol(s) in O/W emulsion
# Description: as §1
# [4] = test system: Staphylococcus aureus ATCC 6538; assay: as above; conditions: 3% diol(s) in O/W emulsion
# Description: as §1
# [5] = test system: Epidermophyton floccosum CBS 55384; assay: MIC, agar dilution method; conditions: CBS55384, Mueller-Hinton agar, 18 h at 36° C.
# Description: (§2) Petri dishes 9.0 cm in diameter were charged with 13.5 ml freshly prepared Mueller-Hinton agar (Merck, Ref. 1.05437 or Wilkins-Chalgren agar boullion, Oxoid, Ref. CM 643, supplemented with log agar-agar/liter) kept liquid at 50° C., to which the various concentrations of the diluted samples were added in 10% (V/V)=1.5 ml. Mueller-Hinton agar that contained 3% Tween80 (Merck, Ref. 8.22 187) was used for the test germ Malassezia furfur. In each case 5 ml of the samples were diluted in distilled water and made up to 10 ml. The further test concentrations of the particular dilution series, which were prepared in the form of geometric series, were prepared by progressive 1:2 dilution of this batch with distilled water. […] Two agar plates were poured per test concentration and nutrient medium. After solidification and drying (approx. 1 h at 37° C.), the test plates were inoculated in point form with, in each case, 1 μl of the test germ suspensions listed below. To check purity and identity the bacteria that grow aerobically (Brevibacterium epidermidis, Corynebacterium xerosis, Staphylococcus epidermidis) were [lacuna] on Columbia blood agar (BioMérieux, Ref. 43049). The mould Aspergillus niger, the yeast Candida albicans and the two skin fungi Trichophyton mentagrophytes and Epidermophyton floccosum were cultured on Sabouraud agar (BioMérieux, Ref. 43555). Malassezia furfur was cultured on Sabourad HLT agar with disinhibitors (addition of 3% Tween80: 1%; lecithin: 0.3%; histidine: 0.1%; Merck, Ref. 1.18368). Propionibacterium acnes was cultured on Schaedler agar (BioMérieux, Ref. 43273). Further details on the test germs can be taken from Table 5. For preparation of the other test germ suspensions, the test strains were cultured on the abovementioned solid nutrient medium, harvested using sterile swabs and taken up or diluted in such an amount of Mueller-Hinton broth that the turbidity of the suspensions corresponded to McFarland standard 0.5. All test germ suspensions with the exception of Propionibacterium acnes were diluted again 1:10 with sterile broth and the germ count thereof was determined by the surface method using a Spiralometer (results: see Table 5). The MIC (minimum inhibitory concentration) was regarded as the lowest concentration of active compound at which macroscopically there is no growth. Minimal, barely visible growth or few small individual colonies were evaluated as inhibition.
# [6] = test system: Malassezia furfur DSM 6171; assay: MIC, agar dilution method; conditions: DSM6171, Mueller-Hinton agar + 3% Tween 80, 72 h at 30° C.
# Description: as §2
# [7] = test system: Trichophyton mentagrophytes CBS 26379; assay: MIC, agar dilution method; conditions: CBS26379, Mueller-Hinton agar, 72 h at 30° C.
# Description: as §2
Compound,germ count C. albicans ([1]; 0′-count (initial germ count)),germ count C. albicans ([1]; 24 h),germ count C. albicans ([1]; 48 h),germ count C. albicans ([1]; 4 d),germ count C. albicans ([1]; 7 d),germ count C. albicans ([1]; 14 d),germ count C. albicans ([1]; 28 d),germ count E. coli ([2]; 0′-count (initial germ count)),germ count E. coli ([2]; 24 h),germ count E. coli ([2]; 48 h),germ count E. coli ([2]; 4 d),germ count E. coli ([2]; 7 d),germ count E. coli ([2]; 14 d),germ count E. coli ([2]; 28 d),germ count Ps. aeruginosa ([3]; 0′-count (initial germ count)),germ count Ps. aeruginosa ([3]; 24 h),germ count Ps. aeruginosa ([3]; 48 h),germ count Ps. aeruginosa ([3]; 4 d),germ count Ps. aeruginosa ([3]; 7 d),germ count Ps. aeruginosa ([3]; 14 d),also measured
"CCCCC(O)CO (stereo not drawn) [HE3, 1,2-hexanediol]","250,000 CFU/ml","120,000 CFU/ml","5,600 CFU/ml",0 CFU/ml,0 CFU/ml,0 CFU/ml,0 CFU/ml,"300,000 CFU/ml",<100 CFU/ml,<100 CFU/ml,0 CFU/ml,0 CFU/ml,0 CFU/ml,0 CFU/ml,"290,000 CFU/ml",<100 CFU/ml,<100 CFU/ml,0 CFU/ml,0 CFU/ml,0 CFU/ml,"germ count Ps. aeruginosa ([3]; 28 d): 0 CFU/ml; germ count Staph. aureus ([4]; 0′-count (initial germ count)): 240,000 CFU/ml; germ count Staph. aureus ([4]; 24 h): <100 CFU/ml; germ count Staph. aureus ([4]; 48 h): <100 CFU/ml; germ count Staph. aureus ([4]; 7 d): 0 CFU/ml; germ count Staph. aureus ([4]; 14 d): 0 CFU/ml; germ count Staph. aureus ([4]; 28 d): 0 CFU/ml; MIC [5]: 6250 µg/mL; MIC [6]: 12500 µg/mL; MIC [7]: 6300 µg/mL"
"CCCCCCC(O)CO (stereo not drawn) [OC3, 1,2-octanediol]","250,000 CFU/ml","3,200 CFU/ml",<100 CFU/ml,0 CFU/ml,0 CFU/ml,0 CFU/ml,0 CFU/ml,"300,000 CFU/ml",0 CFU/ml,0 CFU/ml,0 CFU/ml,0 CFU/ml,0 CFU/ml,0 CFU/ml,"290,000 CFU/ml",0 CFU/ml,0 CFU/ml,0 CFU/ml,0 CFU/ml,0 CFU/ml,"germ count Ps. aeruginosa ([3]; 28 d): 0 CFU/ml; germ count Staph. aureus ([4]; 0′-count (initial germ count)): 240,000 CFU/ml; germ count Staph. aureus ([4]; 24 h): 0 CFU/ml; germ count Staph. aureus ([4]; 48 h): 0 CFU/ml; germ count Staph. aureus ([4]; 7 d): 0 CFU/ml; germ count Staph. aureus ([4]; 14 d): 0 CFU/ml; germ count Staph. aureus ([4]; 28 d): 0 CFU/ml; MIC [5]: 3120 µg/mL; MIC [6]: 50000 µg/mL; MIC [7]: 1560 µg/mL"
